We go through 1 compound from PMC6757420, “Identifying the active components of Baihe–Zhimu decoction that ameliorate depressive disease by an effective integrated strategy: a systemic pharmacokinetics study combined with classical depression model tests” (Chinese Medicine, 2019).

Structures are written as SMILES.

One series has as its system dopamine (DA). The experiment in a line: content of dopamine (DA) by ELISA kit. Format: in vivo, ICR mice. Particulars: Table 5; 10 mg/kg oral; control 171.6 ± 54.5. The procedure: (§1) The antidepressant activity of the drugs was evaluated by classic behavioral measurements, such as the forced swimming test (FST) and tail suspension test (TST). All the ICR mice were randomly divided into several groups (n = 8) as follows: a control group with stimulation and different test groups subjected to FST and TST after the oral administration of different drugs for 8 days, including fluoxetine (10 mg/kg), BZD (3 g/kg), ZD (3 g/kg), Baihe decoction (BD, 3 g/kg), PZ (21.2 mg/kg), XZ (21.2 mg/kg), SZ (21.2 mg/kg), timosaponin BII (10 mg/kg) and timosaponin BIII (10 mg/kg).
(§2) The contents of dopamine (DA) and serotonin (5-HT) in the plasma were determined using ELISA Kits (Shanghai Jianglai Biotech Co., Ltd., Shanghai, China) according to the manufacturer’s instructions.

Series [1] is described as follows: pharmacokinetic study of five major components after oral administration of BZD (HPLC-QQQ MS). Format: in vivo, Sprague–Dawley (SD) rats. Particulars: rats, oral BZD 15 g/kg; for Cmax / T1/2 / Tmax / AUC0–t: n = 5; for ER (liver extraction ratio): from portal vein plasma and systemic plasma. The procedure:
The HPLC-QQQ MS method was developed according to a previous study in our group. Briefly, five compounds were simultaneously determined in plasma, liver and brain samples using a 1260 Series liquid chromatography system (Agilent Technologies, Palo Alto, CA, USA) coupled to a 6460 triple quadrupole mass spectrometer with an electrospray ionization source (Agilent Technologies, Palo Alto, CA, USA). Chromatographic separation was performed on an ACE Super C18 column (100 mm × 2.1 mm, 3.0 µm, Advanced Chromatography Technologies Ltd. Aberdeen, Scotland) at a temperature of 40 °C. The mobile phase consisted of water containing 0.1% formic acid (A) and acetonitrile containing 0.1% formic acid (B). The gradient program was performed as follows: 0–3 min, 92% A; 3.5–4.0 min, 88–60% A; 5.5–6 min, 60–55% A; 6.6–7 min, 55–5% A; 11–11.01 min, 5–92% A; 11.01–13.5 min, 92% A. The flow rate was set to 0.35 mL/min in the time range of 0–6.6 min and kept at 0.45 mL/min between 7 and 13.5 min. Five components were monitored in negative multiple reaction monitoring (MRM) mode. The parameters of the mass spectrometer were as follows: capillary voltage, 3500 V; nebulizer, 45 psi; gas temperature, 350 °C; gas flow rate, 12 L/min; sheath gas temperature, 400 °C; sheath gas flow rate, 8 L/min. MassHunter Workstation software (Agilent Technologies, Palo Alto, CA, USA) was used for system operation and data analysis.
All Sprague–Dawley (SD) rats and ICR mice were purchased from Shanghai SLAC Laboratory Animal Co., Ltd. and kept in the breeding room at 22 ± 2 °C and 50 ± 10% humidity in Shanghai Institute of Materia Medica (SIMM). The experimental protocols were approved by the Institutional Animal Care and Use Committee in SIMM. After 1 week of acclimation, all the SD rats were orally administered BZD (15 g/kg). The biological samples were collected from the rats after fasting for 12 h. After anaesthetization, the rats were dissected at 5 min, 15 min, 30 min, 1 h, 2 h, 4 h, 7 h, 10 h, 20 h and 40 h (n = 5 for each time-point). The hepatic portal vein plasma (2 mL) and the systemic plasma (6–8 mL) were subsequently harvested, and finally the liver and brain tissue samples were collected. The plasma sample were centrifuged at 9500×g for 5 min, and the tissue samples were washed with saline solution. All samples were stored at − 80 °C until analysis. The samples were prepared according to the method described in the previous study by our group.
A noncompartmental analysis was carried out using WinNonlin software (Pharsight 6.2, NC, USA) to calculate the PK parameters. The significance of the results in behavior assessment was analyzed by unpaired Student’s t-tests. A P value less than 0.05 was considered significant. The liver extraction ratio (ER) indicated the fraction of hepatic clearance and first-pass effect, and the calculation formula was as reported in a previous study by our group.

In series [2] the test system is ICR mice. The experiment in a line: tail suspension test (TST). In kind it is in vivo. Particulars: Table 4, oral administration for 8 days, n = 8, 10 mg/kg, control 102.0 ± 16.9. As for the experimental part: as §1
(§3) The FST was performed according to a previously described method with minor modifications. Briefly, each mouse was individually placed in an open water-filled cylinder (H: 50 cm; Ø: 20 cm; water depth: 35 cm; temperature: 23–25 °C) and allowed to swim for a period of 6 min. The total time of immobility was recorded during the last 4 min of the testing duration. Immobility is defined as the mice floating in the water without movement. The TST was conducted as described in the literature. Briefly, the mice were suspended 20 cm above the floor for 6 min. The time of immobility was recorded after the first 2 min. Mice in a completely motionless state were considered immobile.

Series [3] relates to ICR mice. The experiment in a line: forced swimming test (FST). Particulars: Table 4, oral administration for 8 days, n = 8, 10 mg/kg, control 118.1 ± 24.3. Format: in vivo. The procedure:
as §1, §3

The subject of a further series is depressive rats. Particulars: rats; by regulating inflammatory cytokines, BNDF signaling and synaptic plasticity; cited from earlier work.
For another series, the system named is serotonin (5-HT). As to the kind of experiment: content of serotonin (5-HT) by ELISA kit. Format: in vivo, ICR mice. Particulars: Table 5; 10 mg/kg oral; control 636.2 ± 80.1. The procedure:
as §1, §2

Turning to `CC1=C(CC[C@H](C)CO[C@@H]2O[C@H](CO)[C@@H](O)[C@H](O)[C@H]2O)O[C@H]2C[C@H]3[C@@H]4CC[C@@H]5C[C@@H](O[C@@H]6O[C@H](CO)[C@H](O)[C@H](O)[C@H]6O[C@@H]6O[C@H](CO)[C@@H](O)[C@H](O)[C@H]6O)CC[C@]5(C)[C@H]4CC[C@]3(C)[C@@H]12` [Timosaponin BIII, timosaponin BIII], the “Content (ng/g) DA” value in the series on dopamine (DA) amounted to 191.3 ± 69.8 ng/g. The Cmax in series [1] (cerebellum) was determined as 349.41 ± 34.90 ng/g; in series [1] (hippocampus), 198.23 ± 122.31 ng/g; in series [1] (liver) it was 158.66 ± 22.12 ng/g; in series [1] (portal vein plasma), 226.39 ± 43.92 ng/mL; in series [1] (systemic plasma), 114.14 ± 13.38 ng/mL. For the same compound, the T1/2 in series [1] (cerebellum) was 20.65 h; in series [1] (hippocampus), 1.52 h; in series [1] (liver), 13.81 h; in series [1] (portal vein plasma), 16.59 h; in series [1] (systemic plasma), 22.82 h. The Tmax in series [1] (cerebellum) was determined as 0.25 h; in series [1] (hippocampus) it was 1.00 h; in series [1] (liver) it was 0.08 h; in series [1] (portal vein plasma), 0.25 h; in series [1] (systemic plasma), 0.25 h. Moreover, the “ER (liver extraction ratio)” value in series [1] and in series [1] (listed as timosaponin BIII) was 11.57% throughout. The figures for the “AUC0–t” value in series [1] (portal vein plasma) and in series [1] (systemic plasma) were 369.20 ± 74.63 ng/mL and 326.47 ± 54.29 ng/mL, respectively. Also, the “Immobility time (mean ± SD, s) TST” value in the series on ICR mice [2] was 58.4 ± 15.6 s. Also, in the series on ICR mice [3], the “Immobility time (mean ± SD, s) FST” value was 68.6 ± 23.2 s. Besides, the antidepressant effect entry with depressive rats is listed as “significantly ameliorated depressive effects”. For the same compound, the “Content (ng/g) 5-HT” value with serotonin (5-HT) stood at 705.6 ± 47.7 ng/g.
